In patent publication US10456414B2, “Methods for treating HCV” (priority 2011, dated 2019):
Like-named read-outs stand apart in the source and are kept apart here.

Tests used:
[1] = system: GT2b NS5B S282T mutant chimeric replicon; assay: microbe, parasite or virus in culture; assay type: cell-based, HCV; details: for Fold change: GT2b, S282T EC50 versus corresponding wild type; for EC50: Hepatitis C virus, GT2B, 72 h, read-out: EC50 S282T
[2] = system: GT3a NS5B S282T mutant chimeric replicon; assay: microbe, parasite or virus in culture; assay type: cell-based, HCV; details: for Fold change: GT3a, S282T EC50 versus corresponding wild type; for EC50: Hepatitis C virus, GT3A, 72 h, read-out: EC50 S282T
genotype 1b replicon RNA = assay: Replicon RNA suppression, 6 day assay, QRT-PCR
[3] = system: GT2a NS5B S282T mutant replicon; assay: microbe, parasite or virus in culture; assay type: cell-based, HCV; details: for Fold change: GT2a, S282T EC50 versus corresponding wild type; for EC50: Hepatitis C virus, GT2A, 72 h, read-out: EC50 S282T
[4] = system: Huh-7 cells carrying a HCV genotype 1a replicon; assay: Cytotoxicity combination studies with Compound 4, MacSynergy II
[5] = system: Huh-7 cells carrying a HCV genotype 1a replicon; assay: HCV genotype 1a replicon assay, CC50 by calcein AM (Biological Example 3); assay type: cell-based; details: genotype 1a replicon cells, 3 days, read-out: CC50
Protocol: The CC50 assay was performed first.

[6] = system: GT2b wild-type chimeric replicon (2b NS5B in GT1b backbone); assay: microbe, parasite or virus in culture; assay type: cell-based, HCV; details: Hepatitis C virus, 72 h, read-out: EC50 WT
[7] = system: Genotype 1 b replicon cells; assay: Compound combination replicon cure assay, colony formation; details: 6 days treatment at the same concentrations, then G418 for 14 days
[8] = HCV genotype 1a replicon assay, CC50 by calcein AM (Biological Example 8); details: human, Huh-7 cells carrying an HCV genotype 1a replicon
[9] = system: Genotype 1a replicon, NS5A Q30R
[10] = system: Genotype 1a replicon, NS5A Y93H
HCV genotype 1a replicon [11] = assay: HCV genotype 1a replicon assay, EC50 (Biological Example 3); assay type: cell-based; details: Hepatitis C virus, 72 h, 3 days, average ± standard deviation, read-out: EC50
[12] = system: Genotype 1a replicon, NS5A M28T
[13] = system: GT3a wild-type chimeric replicon (3a NS5B in GT1b backbone); assay: microbe, parasite or virus in culture; assay type: cell-based, HCV; details: Hepatitis C virus, 72 h, read-out: EC50 WT
[14] = system: GT4a NS5B S282T mutant chimeric replicon; assay: microbe, parasite or virus in culture; assay type: cell-based, HCV; details: for Fold change: GT4a, S282T EC50 versus corresponding wild type; for EC50: Hepatitis C virus, GT4A, 72 h, read-out: EC50 S282T
HCV genotype 1a replicon [15] = assay: HCV genotype 1a replicon assay, EC50 (Biological Example 8); details: Hepatitis C virus, 72 h
[16] = system: GT4a wild-type chimeric replicon (4a NS5B in GT1b backbone); assay: microbe, parasite or virus in culture; assay type: cell-based, HCV; details: Hepatitis C virus, 72 h, read-out: EC50 WT
[17] = system: Genotype 1a replicon, NS5A Y93C
GT1b wild-type replicon = assay: microbe, parasite or virus in culture; assay type: cell-based, HCV; details: Hepatitis C virus, 72 h, 3 days
[18] = system: Genotype 1a replicon, NS5A L31M
HCV genotype 1a replicon [19] = assay: Antiviral combination studies with Compound 4, MacSynergy II
[20] = system: GT1b NS5B S282T mutant replicon; assay: microbe, parasite or virus in culture; assay type: cell-based, HCV; details: for Fold change: GT1b, S282T EC50 versus corresponding wild type; for EC50: Hepatitis C virus, GT1B, 72 h, read-out: EC50 S282T
GT2a wild-type replicon = assay: microbe, parasite or virus in culture; assay type: cell-based, HCV; details: Hepatitis C virus, 72 h, 3 days
[21] = Drug-drug interactions of co-administered compounds (exposure); assay type: in vivo; details: co-administered with Compound 2
Protocol: With respect to Compounds 9 and 10, or pharmaceutically acceptable salts thereof, the composition may comprise 10 mg to 1000 mg per day (according to US 2010/0298257). With respect to Compound 11, or pharmaceutically acceptable salts thereof, the composition may comprise 1 mg to 1000 mg per day (according to US 2010/0081628).

[22] = system: 1b Huh-luc replicon cells; assay: Antiviral combination studies with Compound 5, MacSynergy II; assay type: cell-based, HCV; details: in combination with Compound 5, mean ± standard deviation
Protocol: Combination data were analyzed based on the Bliss Independence model using MacSynergy II software. Results of the combination assays were expressed as mean synergy and antagonism volumes (nM^2) calculated at 95% confidence from two independent experiments performed in triplicate.

[23] = system: Genotype 1a replicon, NS5A Q30E
[24] = system: Huh-7 cells carrying an HCV genotype 1a replicon; details: with 320 nM Compound 10 and the highest concentration of the listed compound
[25] = system: Genotype 1a replicon, NS5A Q30H
[26] = system: panel of NS5A mutant replicons; assay: Transient replicon assay, panel of NS5A mutant replicons; assay type: cell-based, HCV; details: seven NS5A mutants, genotype 1a
Description: NS5A mutant replicons were created by synthesizing a sequence encoding the first 149 amino acids of NS5A containing the desired mutation flanked by a 5′ and 3′ BsrGI and EcoRI site, respectively (Genscript, Piscataway, N.J.). Synthesized fragments were then cloned by standard molecular biology techniques into a 1a Rluc replicon plasmid modified to enable cloning into unique BsrGI and EcoRI restriction sites. Mutations were confirmed by DNA sequencing.
RNA was transfected into Huh-lunet cells using the method of Lohmann et al. (Lohmann et al., Science 1999; 285 (5424):110-3) Briefly, cells were trypsinized and washed twice with PBS. A suspension of 4×10^6 cells in 400 μL of PBS were mixed with 5 μg of RNA and subjected to electroporation using settings of 960 μF and 270 V. Cells were transferred into 40 mL of pre-warmed culture medium and then seeded into 96-well or 384-well plates. Compounds were 3-fold serially diluted in 100% DMSO and added to cells to achieve a final DMSO concentration of 0.5%. Cells were treated for three days after which culture media were removed, cells were lysed, and Renilla luciferase activity was quantified using commercially available reagents (Promega) and a Victor or Envision instrument (Perkin Elmer, Waltham, Mass.).
Resistance fold changes were calculated as the ratio of mutant to wild-type replicon EC50. […]

[27] = system: NS5B S282T mutant replicons; assay: microbe, parasite or virus in culture; assay type: cell-based, HCV; details: Hepatitis C virus, read-out: EC50 values for S282T across all five genotypes
[28] = in combination with Compound 4, mean ± standard deviation

SMILES | Fold change [1] | EC50 [1] [nM] | Fold change [2] | EC50 [2] [nM] | Fold change [3] | EC50 [3] [nM] | EC50 [6] [nM] | CC50 at 3 days [8] [nM] | Fold Shift in EC50 (DRM EC50/1a-H77 EC50) [9] | Fold Shift in EC50 (DRM EC50/1a-H77 EC50) [10] | Fold Shift in EC50 (DRM EC50/1a-H77 EC50) [12] | EC50 [13] [nM] | Fold change [14] | EC50 [14] [nM] | EC50 (HCV genotype 1a replicon [15]) [nM] | EC50 [16] [nM] | EC50 (GT1b wild-type replicon) [nM] | Fold Shift in EC50 (DRM EC50/1a-H77 EC50) [18] | Fold change [20] | EC50 [20] [nM] | also measured
COC(=O)N[C@H](C(=O)N1CC2(CC2)C[C@H]1c1ncc(-c2ccc3c(c2)C(F)(F)c2cc(-c4ccc5nc([C@@H]6[C@H]7CC[C@H](C7)N6C(=O)[C@@H](NC(=O)OC)C(C)C)[nH]c5c4)ccc2-3)[nH]1)C(C)C [Compound 6, (1-{3-[6-(9,9-Difluoro-7-{2-[5-(2-methoxycarbonylamino-3-methyl-butyryl)-5-aza-spiro[2.4]hept-6-yl]-3H-imidazol-4-yl}-9H-fluoren-2-yl)-1H-benzoimidazol-2-yl]-2-aza-bicyclo[2.2.1]heptane-2-carbonyl}-2-methyl-propyl)-carbamic acid methyl ester] | 0.9 | 0.5 | 0.6 | 0.2 | 0.5 | 2340 | 0.5 | > 44400 | 170 | 3029 | 25 | 0.4 | 0.8 | 0.4 | 0.032 | 0.5 | 0.5 | 140 | 0.8 | 0.4 | Replicon RNA log drop (genotype 1b replicon RNA): −1.4 log; Compound concentration able to induce replicon RNA 1-1.5 log drop in a 6 day assay (genotype 1b replicon RNA; genotype 1b replicon cells, 6 days): 0.004 nM; Replicon RNA log drop (genotype 1b replicon RNA; single compound at the listed concentration, 6 days, relative to DMSO control (Table XIV)): −1.4 log; Interaction (cytotoxicity) ([4]; in combination with Compound 4): Additivity (Additivity: ≤25 and >−25 nM^2%); Antagonism Volume (cytotoxicity) [4, 28]: 0 ± 0 nM^2%; Synergy Volume (cytotoxicity) [4, 28]: 8 ± 4 nM^2%; CC50 [5]: > 44400 nM; Uncured colony number [7]: 634; EC50 (HCV genotype 1a replicon [11]): 0.033 ± 0.011 nM; Fold Shift in EC50 (DRM EC50/1a-H77 EC50) [17]: 327; Interaction (HCV genotype 1a replicon [19]; in combination with Compound 4): Additivity (Additivity: ≤25 and >−25 nM^2%); Antagonism Volume (HCV genotype 1a replicon [19]; [28]): −7 ± 7 nM^2%; Synergy Volume (HCV genotype 1a replicon [19]; [28]): 19 ± 17 nM^2%; EC50 (GT2a wild-type replicon): 5160 nM; increase of exposure of Compound 6 by Compound 2 [21]: approximately 5 ×; Antagonism Volume [22]: 0 ± 0 nM^2; Synergy Volume [22]: 34 ± 19 nM^2; Fold Shift in EC50 (DRM EC50/1a-H77 EC50) [23]: 997; Cytotoxicity at Highest Concentration of Compound Combinations (% inhibition on cell growth) [24]: 5.0 ± 5.0%; Fold Shift in EC50 (DRM EC50/1a-H77 EC50) [25]: 73
CC(C)OC(=O)[C@H](C)N[P@](=O)(OC[C@H]1O[C@@H](n2ccc(=O)[nH]c2=O)[C@](C)(F)[C@@H]1O)Oc1ccccc1 [Compound 10] | 16.2 | 216 | 3.5 | 117 | 2.4 | 346 | 13.3 | > 82400 | 0.8 | 0.7 | 0.9 | 33.9 | 6.1 | 218 | 39 | 35.8 | 21.5 | 1.1 | 8.8 | 189 | increase (shift) in EC50 for NS5A mutants [26]: no significant shift; EC50 (GT2a wild-type replicon): 147 nM; EC50 [27]: 117 to 346 nM; Fold Shift in EC50 (DRM EC50/1a-H77 EC50) [23]: 1.0; Fold Shift in EC50 (DRM EC50/1a-H77 EC50) [25]: 1.0
